Laboratory results reported in patent publication US6013768A, “Kainate-binding human CNS receptors of the EAA1 family” (priority 1997, dated 2000).

Molecular target: T1, human EAA1a receptor (Homo sapiens, UniProt Q16099)
T1 construct: expressed in transfected cells; host or cells: COS-1 (ATCC CRL 1650), transient expression, plasmid pcDNA1/humEAA1a
T1 sequence (Q16099 21-956): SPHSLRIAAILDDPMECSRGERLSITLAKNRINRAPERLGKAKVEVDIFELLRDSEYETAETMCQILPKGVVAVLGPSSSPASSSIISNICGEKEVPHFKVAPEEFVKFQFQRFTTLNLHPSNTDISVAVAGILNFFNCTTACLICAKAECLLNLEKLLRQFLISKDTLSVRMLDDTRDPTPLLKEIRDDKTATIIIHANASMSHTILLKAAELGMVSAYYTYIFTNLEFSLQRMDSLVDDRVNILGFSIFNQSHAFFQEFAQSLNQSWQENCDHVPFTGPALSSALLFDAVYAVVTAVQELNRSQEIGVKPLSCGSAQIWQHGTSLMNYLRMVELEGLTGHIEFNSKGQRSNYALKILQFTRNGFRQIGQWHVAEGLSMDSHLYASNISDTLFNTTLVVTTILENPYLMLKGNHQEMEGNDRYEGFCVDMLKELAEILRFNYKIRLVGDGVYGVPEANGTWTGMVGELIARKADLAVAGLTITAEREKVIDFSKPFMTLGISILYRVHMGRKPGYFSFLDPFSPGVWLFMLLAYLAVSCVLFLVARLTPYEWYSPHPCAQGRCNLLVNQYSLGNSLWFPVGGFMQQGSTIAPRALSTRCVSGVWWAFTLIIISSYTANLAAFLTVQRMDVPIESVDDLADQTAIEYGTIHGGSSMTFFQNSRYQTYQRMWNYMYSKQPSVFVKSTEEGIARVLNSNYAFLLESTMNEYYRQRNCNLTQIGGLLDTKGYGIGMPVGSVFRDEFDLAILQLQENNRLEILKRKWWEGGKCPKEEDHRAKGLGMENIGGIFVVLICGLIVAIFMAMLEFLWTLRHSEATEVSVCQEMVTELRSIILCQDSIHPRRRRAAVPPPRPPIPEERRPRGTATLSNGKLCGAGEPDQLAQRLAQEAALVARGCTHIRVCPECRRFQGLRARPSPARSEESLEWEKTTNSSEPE
Assay: kainate binding assay, membranes of EAA1a-producing COS cells
Protocol: Transfected cells in the frozen state were resuspended in ice-cold distilled water using a hand homogenizer and centrifuged for 20 minutes at 50,000 g. The supernatant was discarded and the membrane pellet stored frozen at -70° C.
COS cell membrane pellets were suspended in ice cold 50 mM Tris-HCl (pH 7.55, 5° C.) and placed inside Spectrapor 7 (EDTA-treated, sulfur-free) dialysis tubing. The suspension was placed in 4 liters of ice cold 50 mM Tris-HCl (pH 7.55, 5° C.) and dialyzed for 16-24 hours at 5° C. in order to remove endogenous glutamate that would compete for binding. The tissue suspension was recovered from the tubing along with a small volume of buffer used to rinse the tubing. This resultant membrane preparation was used as tissue source for binding experiments described below.
Binding assays were then performed, using an amount of COS-derived membrane equivalent to from 25-100 μg as judged by protein determination and selected radiolabelled ligand.
For kainate binding assays, incubation mixtures consisted of 25-100 μg tissue protein and [vinylidene-^3 H] kainic acid (58 Ci/mmole, 5 nM final) in the cold incubation buffer, 1 ml final volume. Non-specific binding was in the presence of 1 mM L-glutamate. […] Filters were washed twice in 6 ml of the cold incubation buffer, then placed in scintillation vials with 5 ml of Beckman Ready-Safe scintillation cocktail for counting.

With `C=C(C)[C@H]1CN[C@H](C(=O)O)[C@H]1CC(=O)O` [kainate] the kainate binding affinity (EAA1a-producing COS cell membranes, high affinity category i.e. nanomolar range) was “high affinity” and the “specific binding of labelled kainate” value ([3H]-kainate 5 nM labelled ligand, COS cell membranes, non-specific binding with 1 mM L-glutamate, FIG. 5) was “specific [^3 H]-kainate binding”.
